Columns and labels:
Beta-secretase 1 = Beta-secretase 1 (Homo sapiens, UniProt P56817); assay: Immunofluorescence Resonance Energy Transfer (FRET) Assay: The FRET assay was performed essentially as described in Gruninger-Leitch et al., Journal of Biological Chemistry (2002) 277(7) 4687-93 (Substrate and inhibitor profile of BACE (beta-secretase) and comparison with other mammalian aspartic proteases). In summary, a peptide is designed that is cleaved by the protease. The peptide is labelled with dabcyl at the N terminus and Lucifer Yellow at the C-terminus, such that for an intact peptide the Lucifer Yellow fluorescence is quenched by the dabcyl. When the peptide is cut by BACE2, the quenching is removed and a fluorescent signal is generated. The assay was performed as described in Grueninger et al. 2002 at pH 4.5 using a substrate concentration of 5 μM. A FRET peptide based on the TMEM27 sequence was devised. dabcyl-QTLEFLKIPS-LucY (SEQ ID NO: 1). […] Conversely, BACE1 had insignificant activity against this peptide.
Sequence of Beta-secretase 1 (P56817 whole entry): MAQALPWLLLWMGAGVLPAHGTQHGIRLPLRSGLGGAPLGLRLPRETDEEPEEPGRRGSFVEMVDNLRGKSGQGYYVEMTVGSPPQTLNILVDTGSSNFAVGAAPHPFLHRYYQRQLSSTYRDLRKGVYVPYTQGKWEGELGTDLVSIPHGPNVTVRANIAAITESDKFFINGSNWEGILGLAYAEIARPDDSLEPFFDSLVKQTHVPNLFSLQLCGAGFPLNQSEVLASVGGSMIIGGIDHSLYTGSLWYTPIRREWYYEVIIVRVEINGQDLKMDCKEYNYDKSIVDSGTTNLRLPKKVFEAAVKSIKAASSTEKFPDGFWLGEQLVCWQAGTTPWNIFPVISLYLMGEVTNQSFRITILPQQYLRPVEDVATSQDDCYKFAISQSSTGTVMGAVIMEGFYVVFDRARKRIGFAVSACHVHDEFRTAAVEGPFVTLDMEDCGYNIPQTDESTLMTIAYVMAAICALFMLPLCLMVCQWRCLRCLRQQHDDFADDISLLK

Beta-secretase 2 = target: T1, Beta-secretase 2 (Homo sapiens, UniProt Q9Y5Z0); assay: In summary, a peptide is designed that is cleaved by the protease. The peptide is labelled with dabcyl at the N terminus and Lucifer Yellow at the C-terminus, such that for an intact peptide the Lucifer Yellow fluorescence is quenched by the dabcyl. When the peptide is cut by BACE2, the quenching is removed and a fluorescent signal is generated.
T1 sequence (Q9Y5Z0 whole entry): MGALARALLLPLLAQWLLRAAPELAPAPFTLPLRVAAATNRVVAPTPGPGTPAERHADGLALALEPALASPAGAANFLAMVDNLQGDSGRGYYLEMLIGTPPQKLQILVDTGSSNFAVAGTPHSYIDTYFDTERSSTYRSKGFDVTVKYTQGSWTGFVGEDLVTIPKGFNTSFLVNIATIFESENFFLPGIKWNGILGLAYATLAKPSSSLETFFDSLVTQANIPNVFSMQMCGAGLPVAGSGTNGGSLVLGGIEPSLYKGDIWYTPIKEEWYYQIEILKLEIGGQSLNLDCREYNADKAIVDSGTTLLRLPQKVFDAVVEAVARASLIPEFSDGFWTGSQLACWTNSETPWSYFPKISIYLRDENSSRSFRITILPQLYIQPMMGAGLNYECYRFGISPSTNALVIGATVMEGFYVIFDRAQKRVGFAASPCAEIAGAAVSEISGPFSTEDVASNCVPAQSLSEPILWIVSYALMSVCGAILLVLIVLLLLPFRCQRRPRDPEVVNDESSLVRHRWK

SMILES: CC1(C)OCC(N)=N[C@](C)(c2cc(Nc3cncc(C(F)(F)F)c3)ccc2F)C1(F)F
- IC50 (Beta-secretase 1): 1900 nM
- IC50 (Beta-secretase 2): 3890 nM

Reference: ChEMBL document CHEMBL3639125, “1,4-oxazepines as BACE1 and/or BACE2 inhibitors” (2014)
